Experimental data reported in article PMC3639963, “A New Class of Small Molecule Inhibitor of BMP Signaling” (PLoS ONE, 2013).

Columns and labels:
Assay in all cases: Nanosyn kinase profiling
Format in all cases: biochemical
Settings in all cases: read-out: Percentage inhibition; for inhibition at 0.1 µM: 0.1 µM inhibitor; for inhibition at 1 µM: 1 µM inhibitor
[1] = target: T1, AMPKα1 (Homo sapiens, UniProt Q13131)
T1 construct: purchased Nanosyn (enzymatic panel); SGC in-house recombinant human kinases (DSF panel); Invitrogen (ALK1-6)
In short: (§1)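 Percent inhibition of each kinase was measured with the inhibitor at 0.1 µM and at 1 µM, as part of a 200-kinase human selectivity panel.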

[2] = target: T2, DYRK1A (Homo sapiens, UniProt Q13627)
T2 construct: purchased Nanosyn (enzymatic panel); SGC in-house recombinant human kinases (DSF panel); Invitrogen (ALK1-6)
In short: as §1

[3] = target: T3, MARK4 (Homo sapiens, UniProt Q96L34)
T3 construct: purchased Nanosyn (enzymatic panel); SGC in-house recombinant human kinases (DSF panel); Invitrogen (ALK1-6)
T3 sequence (Q96L34 1-752): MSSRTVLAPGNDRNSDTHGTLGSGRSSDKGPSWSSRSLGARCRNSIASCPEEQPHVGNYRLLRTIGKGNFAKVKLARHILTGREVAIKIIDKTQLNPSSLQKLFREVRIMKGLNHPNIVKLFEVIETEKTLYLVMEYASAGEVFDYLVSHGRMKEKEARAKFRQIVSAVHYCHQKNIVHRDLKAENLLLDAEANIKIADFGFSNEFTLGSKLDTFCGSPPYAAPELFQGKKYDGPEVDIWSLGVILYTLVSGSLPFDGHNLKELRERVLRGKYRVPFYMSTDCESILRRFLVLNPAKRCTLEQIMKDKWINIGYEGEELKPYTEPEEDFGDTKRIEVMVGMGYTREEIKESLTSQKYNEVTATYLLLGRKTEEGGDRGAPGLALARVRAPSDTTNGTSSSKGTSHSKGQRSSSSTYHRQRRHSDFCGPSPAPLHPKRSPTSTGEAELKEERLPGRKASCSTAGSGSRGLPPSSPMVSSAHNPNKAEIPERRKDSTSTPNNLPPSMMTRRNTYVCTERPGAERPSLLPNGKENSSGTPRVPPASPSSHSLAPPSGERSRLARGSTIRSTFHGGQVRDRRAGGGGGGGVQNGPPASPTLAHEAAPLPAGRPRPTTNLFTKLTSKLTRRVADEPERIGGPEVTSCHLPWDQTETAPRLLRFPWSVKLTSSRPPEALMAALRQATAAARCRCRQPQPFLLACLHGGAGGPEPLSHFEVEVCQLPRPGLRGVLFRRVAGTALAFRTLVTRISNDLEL
In short: as §1

[4] = target: T4, MNK2 (Homo sapiens, UniProt Q9HBH9)
T4 construct: purchased Nanosyn (enzymatic panel); SGC in-house recombinant human kinases (DSF panel); Invitrogen (ALK1-6)
In short: as §1

[5] = target: T5, NEK1 (Homo sapiens, UniProt Q96PY6)
T5 construct: purchased Nanosyn (enzymatic panel); SGC in-house recombinant human kinases (DSF panel); Invitrogen (ALK1-6)
T5 sequence (Q96PY6 1-1258): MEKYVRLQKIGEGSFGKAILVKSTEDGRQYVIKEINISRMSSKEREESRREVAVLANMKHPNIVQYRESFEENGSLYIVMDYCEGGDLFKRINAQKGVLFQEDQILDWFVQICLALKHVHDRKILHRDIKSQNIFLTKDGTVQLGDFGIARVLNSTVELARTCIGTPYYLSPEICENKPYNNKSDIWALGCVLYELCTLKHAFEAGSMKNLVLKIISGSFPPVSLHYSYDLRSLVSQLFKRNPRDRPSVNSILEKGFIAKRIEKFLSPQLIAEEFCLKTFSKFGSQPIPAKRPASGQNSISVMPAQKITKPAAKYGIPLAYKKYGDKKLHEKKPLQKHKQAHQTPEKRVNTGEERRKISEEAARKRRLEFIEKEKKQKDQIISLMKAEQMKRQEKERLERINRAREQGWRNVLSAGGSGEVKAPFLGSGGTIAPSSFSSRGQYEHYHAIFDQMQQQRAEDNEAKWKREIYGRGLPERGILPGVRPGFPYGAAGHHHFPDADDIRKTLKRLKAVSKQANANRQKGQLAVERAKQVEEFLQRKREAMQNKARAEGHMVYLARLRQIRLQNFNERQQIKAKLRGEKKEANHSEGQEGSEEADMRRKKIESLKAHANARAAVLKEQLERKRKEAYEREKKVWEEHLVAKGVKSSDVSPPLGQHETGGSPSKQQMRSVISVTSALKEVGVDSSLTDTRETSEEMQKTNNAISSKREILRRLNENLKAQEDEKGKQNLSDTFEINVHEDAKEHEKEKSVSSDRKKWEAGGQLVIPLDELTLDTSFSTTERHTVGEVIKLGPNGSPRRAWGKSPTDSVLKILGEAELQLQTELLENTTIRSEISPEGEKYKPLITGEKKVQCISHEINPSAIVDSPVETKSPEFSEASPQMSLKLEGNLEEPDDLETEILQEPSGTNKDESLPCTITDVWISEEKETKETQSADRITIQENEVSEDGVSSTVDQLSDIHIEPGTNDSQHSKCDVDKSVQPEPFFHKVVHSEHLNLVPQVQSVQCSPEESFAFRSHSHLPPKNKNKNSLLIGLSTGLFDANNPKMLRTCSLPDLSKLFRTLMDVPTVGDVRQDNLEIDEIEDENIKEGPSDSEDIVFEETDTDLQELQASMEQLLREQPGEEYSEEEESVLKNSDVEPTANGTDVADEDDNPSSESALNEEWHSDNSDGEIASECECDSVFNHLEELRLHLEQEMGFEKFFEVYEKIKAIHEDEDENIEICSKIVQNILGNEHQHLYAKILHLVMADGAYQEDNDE
In short: as §1

[6] = target: T6, PRKX (Homo sapiens, UniProt P51817)
T6 construct: purchased Nanosyn (enzymatic panel); SGC in-house recombinant human kinases (DSF panel); Invitrogen (ALK1-6)
T6 sequence (P51817 1-358): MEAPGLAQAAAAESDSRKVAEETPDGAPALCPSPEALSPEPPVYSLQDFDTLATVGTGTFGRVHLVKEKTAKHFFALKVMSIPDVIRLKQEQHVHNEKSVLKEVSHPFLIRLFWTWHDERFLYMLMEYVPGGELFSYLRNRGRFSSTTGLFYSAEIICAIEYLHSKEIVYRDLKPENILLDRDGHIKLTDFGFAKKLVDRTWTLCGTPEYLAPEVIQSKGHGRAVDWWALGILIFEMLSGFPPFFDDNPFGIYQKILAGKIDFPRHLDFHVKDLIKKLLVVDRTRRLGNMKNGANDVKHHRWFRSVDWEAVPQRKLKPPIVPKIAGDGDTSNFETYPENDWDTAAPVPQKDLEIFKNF
In short: as §1

[7] = target: T7, SYK (Homo sapiens, UniProt P43405)
T7 construct: purchased Nanosyn (enzymatic panel); SGC in-house recombinant human kinases (DSF panel); Invitrogen (ALK1-6)
In short: as §1

T4 sequence (Q9HBH9 whole entry): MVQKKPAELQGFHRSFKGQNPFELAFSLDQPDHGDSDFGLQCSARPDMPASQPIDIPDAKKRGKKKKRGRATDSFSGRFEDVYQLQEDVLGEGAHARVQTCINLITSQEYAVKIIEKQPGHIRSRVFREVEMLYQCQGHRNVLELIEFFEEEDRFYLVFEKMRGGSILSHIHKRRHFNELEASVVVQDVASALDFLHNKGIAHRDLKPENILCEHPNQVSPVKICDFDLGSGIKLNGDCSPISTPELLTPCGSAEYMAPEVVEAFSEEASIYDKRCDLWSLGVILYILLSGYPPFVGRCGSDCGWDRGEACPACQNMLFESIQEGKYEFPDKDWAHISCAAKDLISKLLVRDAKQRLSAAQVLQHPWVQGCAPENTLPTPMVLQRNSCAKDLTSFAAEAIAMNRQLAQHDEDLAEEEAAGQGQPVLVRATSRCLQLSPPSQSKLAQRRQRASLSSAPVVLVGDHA
T1 sequence (Q13131 whole entry): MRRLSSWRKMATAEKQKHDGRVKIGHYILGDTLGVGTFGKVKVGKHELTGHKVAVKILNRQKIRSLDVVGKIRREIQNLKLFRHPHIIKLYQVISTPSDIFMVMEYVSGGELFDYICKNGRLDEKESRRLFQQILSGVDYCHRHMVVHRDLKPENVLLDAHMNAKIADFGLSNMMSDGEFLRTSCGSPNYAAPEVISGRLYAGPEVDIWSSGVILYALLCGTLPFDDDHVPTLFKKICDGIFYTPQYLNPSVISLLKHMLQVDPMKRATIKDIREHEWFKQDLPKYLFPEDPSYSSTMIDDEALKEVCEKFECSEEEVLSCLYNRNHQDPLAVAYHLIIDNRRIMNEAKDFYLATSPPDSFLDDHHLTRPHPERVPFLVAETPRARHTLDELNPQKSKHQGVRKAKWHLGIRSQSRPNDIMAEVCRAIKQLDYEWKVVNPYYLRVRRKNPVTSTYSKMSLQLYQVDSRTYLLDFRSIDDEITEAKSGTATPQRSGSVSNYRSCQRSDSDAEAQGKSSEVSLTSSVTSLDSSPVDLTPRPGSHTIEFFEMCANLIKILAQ
T1 sequence (Q9Y478 whole entry partner): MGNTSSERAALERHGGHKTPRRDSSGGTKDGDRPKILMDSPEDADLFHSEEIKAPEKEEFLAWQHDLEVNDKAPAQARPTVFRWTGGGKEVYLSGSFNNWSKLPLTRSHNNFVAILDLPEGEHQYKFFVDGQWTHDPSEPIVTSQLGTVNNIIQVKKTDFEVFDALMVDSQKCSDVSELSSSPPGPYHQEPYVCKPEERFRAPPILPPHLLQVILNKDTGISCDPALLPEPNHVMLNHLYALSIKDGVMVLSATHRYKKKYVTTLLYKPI
T1 sequence (P54619 whole entry partner): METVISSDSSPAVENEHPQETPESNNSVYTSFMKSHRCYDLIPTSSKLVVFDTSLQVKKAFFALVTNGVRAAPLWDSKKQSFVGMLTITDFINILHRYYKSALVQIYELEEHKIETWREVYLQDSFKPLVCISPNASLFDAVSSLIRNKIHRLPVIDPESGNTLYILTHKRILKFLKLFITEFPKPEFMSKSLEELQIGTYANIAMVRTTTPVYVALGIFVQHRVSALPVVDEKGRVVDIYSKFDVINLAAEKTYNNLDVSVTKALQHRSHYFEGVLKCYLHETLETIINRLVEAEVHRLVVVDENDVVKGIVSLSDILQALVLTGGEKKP

Compound	inhibition at 0.1 µM [1] [%]	inhibition at 1 µM [1] [%]	inhibition at 0.1 µM [2] [%]	inhibition at 1 µM [2] [%]	inhibition at 0.1 µM [3] [%]	inhibition at 1 µM [3] [%]	inhibition at 0.1 µM [4] [%]	inhibition at 1 µM [4] [%]	inhibition at 0.1 µM [5] [%]	inhibition at 1 µM [5] [%]	inhibition at 0.1 µM [6] [%]	inhibition at 1 µM [6] [%]	inhibition at 0.1 µM [7] [%]	inhibition at 1 µM [7] [%]
COc1cc(-c2cc(-c3cccc(O)c3)cnc2N)cc(OC)c1OC [K02288, 3-[6-amino-5-(3,4,5-trimethoxy-phenyl)-pyridin-3-yl]-phenol]	-1	0	1.9	4.1	2.4	7.2	1.9	3.2	-1	0.8	-1	-1	0	-2
c1ccc2c(-c3cnn4cc(-c5ccc(N6CCNCC6)cc5)cnc34)ccnc2c1 [LDN-193189]	5.2	23	10	53	13	61	3.7	31	2.1	3.4	0.2	1.2	-1	-12
